Reference: patent US5670498A, “8-substituted styryl xanthine derivatives” (Kyowa Hakko Kogyo Co., Ltd., priority 1992, dated 1997)
Where two headings read alike, the source gives them in different places.

How the values were obtained:
adenosine A2 receptor [1] = target: T1, adenosine A2 receptor (Rattus norvegicus, UniProt P30543); assay: Adenosine A2 Receptor Binding Test (3H-CGS 21680, rat corpus striatum); settings: [3H]CGS 21680, read-out: A2 Receptor Inhibition Rate; for inhibition at 1 µM: 10^-6 M; for inhibition at 0.1 µM: 10^-7 M
T1 construct: Corpus striatum of a rat was suspended in ice-cooled 50 mM Tris; from tissue; host or cells: rat corpus striatum (washed membrane suspension)
T1 sequence (P30543 whole entry): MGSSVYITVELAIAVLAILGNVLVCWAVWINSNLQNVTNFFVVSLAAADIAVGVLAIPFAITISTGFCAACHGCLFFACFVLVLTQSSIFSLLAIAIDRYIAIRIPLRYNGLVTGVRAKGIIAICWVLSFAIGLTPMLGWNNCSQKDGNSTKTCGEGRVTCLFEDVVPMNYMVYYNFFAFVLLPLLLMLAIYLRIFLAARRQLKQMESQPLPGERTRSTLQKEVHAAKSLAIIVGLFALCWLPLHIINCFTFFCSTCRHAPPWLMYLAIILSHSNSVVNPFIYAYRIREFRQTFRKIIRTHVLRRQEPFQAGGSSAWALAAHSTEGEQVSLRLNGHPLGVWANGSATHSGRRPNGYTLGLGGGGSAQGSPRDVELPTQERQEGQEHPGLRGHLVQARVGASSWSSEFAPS
Experimental: Adenosine Receptor Antagonistic Activity (Adenosine A2 Receptor Binding Test)
Corpus striatum of a rat was suspended in ice-cooled 50 mM Tris hydroxymethyl aminomethane hydrochloride (Tris HCl) buffer (pH 7.7) by using Polytron homogenizer (manufactured by Kinematicas Co.). The suspension was centrifuged (50,000×g, 10 minutes), and the precipitate was suspended again in the same amount of 50 mM Tris HCl buffer. The suspension was centrifuged under the same conditions, and the final precipitate was suspended once again in 50 mM Tris HCl buffer containing 10 mM magnesium chloride and 0.02 unit/mg tissue of adenosine deaminase (manufactured by Sigma Co.) to give a tissue concentration of 5 mg (wet weight)/ml.
To 1 ml of the tissue suspension thus prepared were added 50 μl of a mixture of N-ethylcarboxamidoadenosine labeled with tritium (^3 H-NECA: 26 Ci/mmol, manufactured by Amersham Co.) (final concentration: 3.8 nM) and cyclopentyladenosine (CPA, manufactured by Sigma Co.) (final concentration: 50 nM), and 50 μl of a test compound. The resulting mixture was allowed to stand at 25° C. for 120 minutes and then rapidly filtered by suction through a glass fiber filter (GF/C, manufactured by Whatman Co.). The filter was immediately washed three times with 5 ml each of ice-cooled 50 mM Tris HCl buffer, and transferred to a vial, and a scintillator (EX-H by Wako Pure Chemical Industries, Ltd.) was added thereto. The radioactivity on the filter was determined with a liquid scintillation counter (manufactured by Packard instrument Co.).
The similar procedure as above was repeated to determine the radioactivity bound to the A2 receptors using 50 μl of CGS 21680 labeled with tritium {^3 H-2-[p-(2-carboxyethyl)phenethylamino]-5'-(N-ethylcarboxamide)adenosine: 40 Ci/mmol, manufactured by New England Nuclear Co. [J. Pharmacol. Exp. Ther., 251, 888 (1989)]} (final concentration: 4.0 nM) in place of 50 μl of the mixture of N-ethylcarboxamidoadenosine labeled with tritium (^3 H-NECA: 26 Ci/mmol, manufactured by Amersham Co.) (final concentration: 3.8 nM) and cyclopentyladenosine (CPA, manufactured by Sigma Co.) (final concentration: 50 nM).
The inhibition rate of the test compound against the binding of A2 receptors (^3 H-CGS 21680 binding) was calculated by the following equation: [formula]

[2] = system: Haloperidol-Induced Catalepsy; assay: Effect on Haloperidol-Induced Catalepsy; assay type: in vivo, male ddY mice; settings: 10 mg/kg po; for Total Score (catalepsy): sum of five mice, 25 points at the full, control 25; for inhibition in vivo at 10 mg/kg: Mus musculus, decrease in total score based on control group, read-out: Remission Rate
Experimental: Effect on Haloperidol-Induced Catalepsy Parkinson's disease is a clinical syndrome caused by degeneration of nigrostriatal dopaminergic neurons. […] The experiment was performed by using several groups of 5-weeks-old male ddY mice (weighing 22 to 24 g, Japan SLC), each group consisting of 5 mice. Haloperidol (Janssen Pharmaceutica) suspended in 0.3% CMC was intraperitoneally administered to each mouse at a dose of 1.0 mg/kg. Test compounds were suspended in injectable distilled water (Otsuka Pharmaceutical Co., Ltd.) containing Tween 80 [polyoxyethylene (20) sorbitan monooleate]. L-DOPA (Kyowa Hakko Kogyo Co., Ltd.) and benserazide hydrochloride (Kyowa Hakko Kogyo Co., Ltd.) were suspended in 0.3% CMC. One hour after the haloperidol administration, the test compound suspensions and the control suspension [injectable distilled water (Otsuka Pharmaceutical Co., Ltd.) containing Tween 80] containing no test compound were orally administered to separate groups of the mice (0.1 ml per 10 g of body weight). One hour after the administration of the test compound, the forelimbs of each mouse and subsequently the hindlimbs of the same mouse were placed on a 4.5 cm-high, 1.0 cm-wide bar and catalepsy was estimated. […] The catalepsy score and the standard of judgment are shown below. […] The effect of the compounds was evaluated by the total of the catalepsy scores of five mice in each group (25 points at the full).

adenosine A2 receptor [3] = target: T1, adenosine A2 receptor; assay: Adenosine A2 Receptor Binding Test (3H-NECA + CPA, rat corpus striatum); settings: for inhibition at 1 µM: 10^-6 M
Experimental: Corpus striatum of a rat was suspended in ice-cooled 50 mM Tris hydroxymethyl aminomethane hydrochloride (Tris HCl) buffer (pH 7.7) by using Polytron homogenizer (manufactured by […] Co.). The suspension was centrifuged (50,000×g, 10 minutes), and the precipitate was suspended again in the same amount of 50 mM Tris HCl buffer. The suspension was centrifuged under the same conditions, and the final precipitate was suspended once again in 50 mM Tris HCl buffer containing 10 mM magnesium chloride and 0.02 unit/mg tissue of adenosine deaminase (manufactured by Sigma Co.) to give a tissue concentration of 5 mg (wet weight)/ml. […] The resulting mixture was allowed to stand at 25° C. for 120 minutes and then rapidly filtered by suction through a glass fiber filter (GF/C, manufactured by Whatman Co.). […] The radioactivity on the filter was determined with a liquid scintillation counter (manufactured by Packard instrument Co.). […] The Ki values shown in the table were calculated by the following equation: [formula]

[4] = Acute Toxicity Test (minimum lethal dose, po); assay type: in vivo; settings: mice, 7 days after administration
Experimental: Test compounds were orally administered to groups of dd-strain male mice weighing 20±1 g, each group consisting of three mice (po; 300 mg/kg). Seven days after the administration, minimum lethal dose (MLD) of each compound was determined by observing the mortality.
Therefore, these compounds can be safely used in a wide range of doses.

[5] = 3H-NECA, read-out: A2 Receptor Inhibition Rate
[6] = 10^-4 M, 3H-NECA, read-out: A2 Receptor Inhibition Rate
[7] = 10^-5 M, 3H-NECA, read-out: A2 Receptor Inhibition Rate
[8] = read-out: A2 Receptor Inhibition Rate

inhibition at 1 µM (adenosine A2 receptor [1]) [%] | inhibition at 0.1 µM (adenosine A2 receptor [1]) [%] | inhibition at 100 µM (adenosine A2 receptor [3]; [6]) [%] | inhibition at 10 µM (adenosine A2 receptor [3]; [7]) [%] | Compound | Total Score (catalepsy) [2] | inhibition in vivo at 10 mg/kg [2] [%] | also measured
86 | 76 |  |  | CCn1c(=O)c2c(nc(/C=C/c3ccc(F)c(C(C)=O)c3)n2C)n(CC)c1=O [Compound 28, (E)-8-(3-Acetyl-4-fluorostyryl)-1,3-diethyl-7-methylxanthine] |  |  | 
 |  |  |  | CCCn1c(=O)c2c(nc(/C=C/c3cc(OC)c(OC)cc3S(=O)(=O)Nc3ccccc3)n2C)n(CCC)c1=O [Compound 10, (E)-N-Phenyl-4,5-dimethoxy-β-(7-methyl-1,3-dipropylxanthin-8-yl)styrene-2-sulfonamide] | 17 | 32 | 
 |  |  |  | CCCn1c(=O)c2c(nc(/C=C/c3ccc(C(=O)O)cc3)n2C)n(CCC)c1=O [Compound 19, (E)-β-(7-Methyl-1,3-dipropylxanthin-8-yl)styrene-4-carboxylic acid] |  |  | inhibition at 1 µM (adenosine A2 receptor [3]; [5]): 94%; inhibition at 0.1 µM (adenosine A2 receptor [3]; 10^-7 M, 3H-NECA, read-out: A2 Receptor Inhibition Rate): 68%
 |  |  |  | CCCn1c(=O)c2c(nc(/C=C/c3cc(OC)c(OC)cc3S(=O)(=O)N(C)CCN(C)C)n2C)n(CCC)c1=O [Compound 6, (E)-N-[2-(Dimethylamino)ethyl]-N-methyl-4,5-dimethoxy-β-(7-methyl-1,3-dipropylxanthin-8-yl)styrene-2-sulfonamide] | 19 | 24 | 
 |  | 60 | 74 | CCCn1c(=O)c2c(nc(/C=C/c3cc(OC)c(OC)cc3S(=O)(=O)N3CCCCC3)n2C)n(CCC)c1=O [Compound 4, (E)-4,5-Dimethoxy-β-(7-methyl-1,3-dipropylxanthin-8-yl)-2-piperidinosulfonylstyrene] | 11 | 56 | 
 |  |  |  | CCCn1c(=O)c2c(nc(/C=C/c3cc(OC)c(OC)cc3S(=O)(=O)O)n2C)n(CCC)c1=O [Compound 1, (E)-4,5-Dimethoxy-β-(7-methyl-1,3-dipropylxanthin-8-yl)styrene-2-sulfonic acid] |  |  | MLD (minimum lethal dose) [4]: > 300 mg/kg; Ki (adenosine A2 receptor [3]; 3H-NECA): 670 nM; inhibition at 10 µM (adenosine A2 receptor [3]; [8]): 80%; inhibition at 100 µM (adenosine A2 receptor [3]; [8]): 95%
 |  | 76 | 68 | CCCn1c(=O)c2c(nc(/C=C/c3cc(OC)c(OC)c(OC)c3S(N)(=O)=O)n2C)n(CCC)c1=O [Compound 12, (E)-β-(7-Methyl-1,3-dipropylxanthin-8-yl)-3,4,5-trimethoxystyrene-2-sulfonamide] | 15 | 40 | 
 |  | 89 | 69 | CCCn1c(=O)c2c(nc(/C=C/c3cc(OC)c(OC)c(OC)c3S(=O)(=O)N(C)CCN(C)C)n2C)n(CCC)c1=O [Compound 13, (E)-N-[2-(Dimethylamino)ethyl]-N-methyl-β-(7-methyl-1,3-dipropylxanthin-8-yl)-3,4,5-trimethoxystyrene-2-sulfonamide] |  |  | 
93 | 66 |  |  | CCCn1c(=O)c2c(nc(/C=C/c3ccc(OC)c(C(C)=O)c3)n2C)n(CCC)c1=O [Compound 26, (E)-8-(3-Acetyl-4-methoxystyryl)-7-methyl-1,3-dipropylxanthine] |  |  | 
95 | 70 |  |  | CCCn1c(=O)c2c(nc(/C=C/c3ccc(C(=O)O)cc3OC)n2C)n(CCC)c1=O [Compound 23, (E)-2-Methoxy-β-(7-methyl-1,3-dipropylxanthin-8-yl)styrene-4-carboxylic acid] |  |  | 
 |  | 93 | 93 | CCCn1c(=O)c2c(nc(/C=C/c3cc(OC)c(OC)c(OC)c3S(=O)(=O)O)n2C)n(CCC)c1=O [Compound 11, (E)-β-(7-Methyl-1,3-dipropylxanthin-8-yl)-3,4,5-trimethoxystyrene-2-sulfonic acid] | 19 | 24 | 
89 | 56 |  |  | CCCn1c(=O)c2c(nc(/C=C/c3ccc(S(=O)(=O)O)cc3)n2C)n(CCC)c1=O [Compound 31, (E)-β-(7-Methyl-1,3-dipropylxanthin-8-yl)styrene-4-sulfonic acid] |  |  | 
 |  |  |  | CCCn1c(=O)c2c(nc(/C=C/c3cc(C)c(C)cc3S(=O)(=O)O)n2C)n(CCC)c1=O [Compound 15, (E) -4,5-Dimethyl-β-(7-methyl-1,3-dipropylxanthin-8-yl)styrene-2-sulfonicacid] |  |  | MLD (minimum lethal dose) [4]: > 300 mg/kg
 |  | 91 | 92 | CCCN(CCC)S(=O)(=O)c1cc(OC)c(OC)cc1/C=C/c1nc2c(c(=O)n(CCC)c(=O)n2CCC)n1C [Compound 3, (E)-N,N-Dipropyl-4,5-dimethoxy-β-(7-methyl-1,3-dipropylxanthin-8-yl)styrene-2-sulfonamide] | 20 | 20 | 
95 | 83 |  |  | CCn1c(=O)c2c(nc(/C=C/c3ccc(C(C)=O)c(OC)c3)n2C)n(CC)c1=O [Compound 30, (E)-8-(4-Acetyl-3-methoxystyryl)-1,3-diethyl-7-methylxanthine] |  |  | 
94 | 80 |  |  | CCCn1c(=O)c2c(nc(/C=C/c3ccc(C(=O)OC)cc3OC)n2C)n(CCC)c1=O [Compound 21, (E)-2-Methoxy-β-(7-methyl-1,3-dipropylxanthin-8-yl)styrene-4-carboxylic acid methyl ester] |  |  | 
 |  | 92 | 77 | CCCn1c(=O)c2c(nc(/C=C/c3ccc(C(=O)OC)cc3)n2C)n(CCC)c1=O [Compound 7, (E)-β-(7-Methyl-1,3-dipropylxanthin-8-yl)styrene-4-carboxylic acid methyl ester] | 11 | 56 | 
 |  |  |  | CCCn1c(=O)c2c(nc(/C=C\c3ccc(C(=O)O)cc3)n2C)n(CCC)c1=O [Compound 18, (Z)-β-(7-Methyl-1,3-dipropylxanthin-8-yl)styrene-4-carboxylic acid] |  |  | MLD (minimum lethal dose) [4]: > 300 mg/kg; inhibition at 1 µM (adenosine A2 receptor [3]; [5]): 72%
88 | 69 |  |  | CCn1c(=O)c2c(nc(/C=C/c3ccc(C(=O)OC)cc3OC)n2C)n(CC)c1=O [Compound 20, (E)-β-(1,3-Diethyl-7-methylxanthin-8-yl) -2-methoxystyrene-4-carboxylic acid methyl ester] |  |  | 
 |  | 112 | 97 | CCCn1c(=O)c2c(nc(/C=C/c3cc(OC)c(OC)cc3S(=O)(=O)N(CC)CC)n2C)n(CCC)c1=O [Compound 2, (E)-N,N-Diethyl-4,5-dimethoxy-β-(7-methyl-1,3-dipropylxanthin-8-yl)styrene-2-sulfonamide] |  |  | 
92 | 60 |  |  | CCn1c(=O)c2c(nc(/C=C/c3ccc(C(=O)O)cc3OC)n2C)n(CC)c1=O [Compound 22, (E)-β-(1,3-Diethyl-7-methylxanthin-8-yl)-2-methoxystyrene-4-carboxylicacid] |  |  | 

Compound | inhibition at 1 µM (adenosine A2 receptor [1]) [%] | inhibition at 0.1 µM (adenosine A2 receptor [1]) [%] | inhibition at 100 µM (adenosine A2 receptor [3]; [6]) [%] | inhibition at 10 µM (adenosine A2 receptor [3]; [7]) [%] | Total Score (catalepsy) [2] | inhibition in vivo at 10 mg/kg [2] [%] | also measured
CCCn1c(=O)c2c(nc(/C=C\c3ccc(C(=O)OC)cc3)n2C)n(CCC)c1=O [Compound 8, (Z)-β-(7-methyl-1,3-dipropylxanthin-8-yl)styrene-4-carboxylic acid methyl ester] |  |  | 101 | 92 |  |  | MLD (minimum lethal dose) [4]: > 300 mg/kg
